Assay results published in patent US7067633B2, “Targeting cellular entry, cell survival, and pathogenicity by dynein light chain 1/PIN in human cells” (Board of Regents, The University of Texas System, priority 2003, dated 2006).

What was measured:
Format in all cases: cell-based, human
Pak1 [1] = experiment: Pak1 protein expression by immunoblot
From the text: (§1) FIGS. 20A–20L—Pak1 activation confers tamoxifen-resistance. FIG. 20A: Pak1 activation promoted ER-transactivation function.

[2] = tested on: ER transactivation (ERE-luc); experiment: ERE-luc transactivation assay
Protocol: MCF-7/DA-Pak1 cells were transfected with ERE-luc, treated with or without Dox for 24 h and then with or without E2 (10^−9M) and/or Tam (10^−8M) for 24 h, and ERE-luc activity was measured. […] FIG. 20D: MCF-7/TAM-Sen and MCF-7/TAMR1 cells were transfected with ERE-luc and treated with E2 or Tam for 24 h and ERE-luc activity was measured. […] FIG. 20L: Ishikawa cells were cotransfected with Pak1 siRNA control or Pak1 siRNA wt and treated with or without Tam (10^−8M) for 24 h and ERE-luc activity was measured.
Ishikawa and MCF-7/TAMR1 cells were transfected with control or Pak1 siRNA for 48 h and then with ERE-luc for 24 h and treated with E2 (10^−9M) for 24 h and ERE-luc activity was measured. […] Ishikawa cells were treated with control or and Pak1 and DLC siRNA for 48 h and then transfected with ERE-luc and treated with Tam (10^−8M) for 24 h and ERE-luc activity was measured.

[3] = tested on: Ishikawa and MCF-7/TAMR1 cells; experiment: Growth of Tam-resistant cells (cell number)
Protocol: FIGS. 22A–22F—DLC1 deregulation potentiates ligand-induced growth and anchorage-independence. FIG. 22A: DLC1 upregulation potentiates growth stimulation by E2 in a Tam-insensitive manner. MCF-7/DLC1 cells were treated with or without Dox and then with E2 (10^−9M) or Tam (10^−8M) for 5 days, and the cell number was determined. FIG. 22B: DLC1 upregulation promotes anchorage independence. […] FIG. 22C: DLC1 expression supports optimum growth of Tam-resistant cells. Ishikawa and MCF-7/TAMR1 cells were transfected with control or DLC siRNA for 48 h and then treated with or without Tam (10^−8M) for 96 h, and the cell number was determined. FIG. 22D: DLC1-mediated potentiation of ER transactivation depends on the Pak1 status in Ishikawa and MCF-7/TAMR1 cell lines. Ishikawa and MCF-7/TAMR1 cells were transfected with control or Pak1 siRNA for 48 h and then with ERE-luc for 24 h and treated with E2 (10^−9M) for 24 h and ERE-luc activity was measured. FIG. 22E: Pak1 expression level influences the growth of Tam resistant cells. Ishikawa and MCF-7/TAMR1 cells were treated with control or Pak1 siRNA for 48 h and treated with or without Tam (10^−8M) for 4 days, and cell number was determined. FIG. 22F: Co-downregulation of Pak1 and DLC1 in Tam-resistant cells restores Tam-sensitivity. […]

DLC1 = DLC1 protein and mRNA expression; settings: MCF-7/TAMR1 and Ishikawa cells, 24 h
Protocol: MCF-7/Tam-sen, MCF-7/TAMR1 and Ishikawa cells were treated with E2 (10^−9M) or Tam (10^−9M) for 24 h, and cell lysates were assayed for DLC1 and Pak1 protein expression. […] FIG. 21C: Effect of different periods of E2 treatment and cycloheximide (CHX) and Actinomycin D (ACTD) treatment on the ability of E2 to upregulate DLC1 mRNA in MCF-7 cells.

Pak1 [4] = experiment: Pak1 kinase activity in cell lysates; settings: Ishikawa cells
From the text: as §1

ZR75 cells = experiment: Cell cycle progression by FACS analysis of serum-starved clones; settings: serum-starved stable clones
Protocol: FIGS. 5A–5C—Requirement of DLC1/PIN and Pak1 interaction in cell proliferation and survival. FIG. 5A: Equal number of cells ZR75R stable cells expressing DLC1/PIN wild type or DLC1/PIN^del88-89 mutant were plated and cell proliferation was determined by trypsinizing and counting cells using a coulter counter. Each colne was plated in triplicate and experiment was repeated twice with similar results. FIG. 5B: Cell cycle progression of DLC1/PIN wild type or mutant clones was analyzed by FACS analysis. […] For example, a smooth nuclear membrane was scored as nonapoptotic, as opposed to membrane blebbing or rupture, which was scored as apoptotic. Nuclei committed to enter mitosis were not scored in either of these groups because they were easily identified for their specific “pulverized” pattern of Lamin A/C staining. Ten randomly selected fields were analyzed for each condition. […]
DLC1/PIN regulation of cell growth and survival. […] After 10 h, apoptosis was quantitated by scoring the integrity of the nuclear membrane in cells expressing both RFP and myc tags to detect DLC/DLC1/PIN and Pak1 respectively (FIG. 5D).

Row | Molecule | Pak1 protein expression (Pak1 [1]; Ishikawa cells, long-term treatment) | levels of Pak1 protein (Pak1 [1]; MCF-7 cells) | inhibitory effects on ERE-luc activity ([2]; Ishikawa cells, both DLC1 and Pak1 knocked down) | Pak1-mediated ERE-stimulation ([2]; MCF-7/DA-Pak1 cells) | growth of cells with downregulated DLC ([3]; Tam 96 h) | growth of cells with downregulated Pak1 ([3]; Tam 4 days) | expression of the DLC1 protein (DLC1) | Pak1 kinase activity (Pak1 [4]) | cell cycle distribution (ZR75 cells)
1 | CC/C(=C(\c1ccccc1)c1ccc(OCCN(C)C)cc1)c1ccccc1 [tamoxifen] | increase | no effect | restored the inhibitory effects | not inhibited | further reduced the growth | no further significant effect | robustly upregulated | upregulated | –
2 | DLC1/PIN^del 88-89: DLC1/PIN mutant in which Ser88 and amino acid 89 were deleted | – | – | – | – | – | – | – | – | significant increase in the cells in pre-Go phase
